US10420341B2, “Herbicidal phenylpyrimidines” (BASF SE, priority 2015, dated 2019)

Tests used:
AVEFA = test: greenhouse post-emergence herbicidal test; format: in vivo, Avena fatua; details: post-emergence method, scale from 0 to 100
From the text: (§1) The seeds of the test plants were sown separately for each species. For the post-emergence treatment, the test plants were first grown to a height of 3 to 15 cm, depending on the plant habit, and only then treated with the active ingredients which had been suspended or emulsified in water. For this purpose, the test plants were either sown directly and grown in the same containers, or they were first grown separately as seedlings and transplanted into the test containers a few days prior to treatment. Depending on the species, the plants were kept at 10-25° C. or 20-35° C., respectively. The test period extended over 2 to 4 weeks. During this time, the plants were tended, and their response to the individual treatments was evaluated. Evaluation was carried out using a scale from 0 to 100. 100 means no emergence of the plants, or complete destruction of at least the aerial moieties, and 0 means no damage, or normal course of growth. […] The plants used in the greenhouse experiments were of the following species: [table]

ECHCG [1] = test: greenhouse pre-emergence herbicidal test; format: in vivo, Echinocloa crus-galli; details: pre-emergence method, scale from 0 to 100
From the text: (§2) The seeds of the test plants were sown separately for each species. For the pre-emergence treatment, the active ingredients, which had been suspended or emulsified in water, were applied directly after sowing by means of finely distributing nozzles. The containers were irrigated gently to promote germination and growth and subsequently covered with transparent plastic hoods until the plants had rooted. This cover caused uniform germination of the test plants, unless this had been impaired by the active ingredients. Depending on the species, the plants were kept at 10-25° C. or 20-35° C., respectively. The test period extended over 2 to 4 weeks. During this time, the plants were tended, and their response to the individual treatments was evaluated. Evaluation was carried out using a scale from 0 to 100. 100 means no emergence of the plants, or complete destruction of at least the aerial moieties, and 0 means no damage, or normal course of growth. […] The plants used in the greenhouse experiments were of the following species: [table]

APESV = test: greenhouse pre-emergence herbicidal test; format: in vivo, Apera spica-venti; details: pre-emergence method, scale from 0 to 100
From the text: as §2

ALOMY = test: greenhouse post-emergence herbicidal test; format: in vivo, Alopercurus myosuroides; details: post-emergence method, scale from 0 to 100
From the text: as §1

ECHCG [2] = test: greenhouse post-emergence herbicidal test; format: in vivo, Echinocloa crus-galli; details: post-emergence method, scale from 0 to 100
From the text: as §1

Structure (SMILES) | herbicidal activity against AVEFA (AVEFA; application rate 1000 g/ha) | herbicidal activity against ECHCG (ECHCG [1]; application rate 1000 g/ha) | herbicidal activity against APESV (APESV; application rate 1000 g/ha) | herbicidal activity against ALOMY (ALOMY; application rate 1000 g/ha) | herbicidal activity against AVEFA (AVEFA; application rate 500 g/ha) | herbicidal activity against ECHCG (ECHCG [1]; application rate 500 g/ha) | herbicidal activity against APESV (APESV; application rate 500 g/ha) | herbicidal activity against ALOMY (ALOMY; application rate 500 g/ha) | herbicidal activity against ECHCG (ECHCG [2]; application rate 1000 g/ha) | herbicidal activity against ECHCG (ECHCG [2]; application rate 500 g/ha)
COC(=O)c1nc(C2CC2)ncc1-c1c(Br)ccc(F)c1F [example 197] | very good (a very good herbicidal activity is given at values of at least 85) | very good (a very good herbicidal activity is given at values of at least 85) | very good (a very good herbicidal activity is given at values of at least 85) | very good (a very good herbicidal activity is given at values of at least 85) | – | – | – | – | – | –
COC(=O)c1nc(C2CC2)ncc1-c1c(F)cc(F)cc1Br [example 214] | very good (a very good herbicidal activity is given at values of at least 85) | very good (a very good herbicidal activity is given at values of at least 85) | very good (a very good herbicidal activity is given at values of at least 85) | very good (a very good herbicidal activity is given at values of at least 85) | – | – | – | – | – | –
COC(=O)c1nc(C2CC2)ncc1-c1cc(F)c(F)cc1Br [example 215] | – | – | – | – | very good (a very good herbicidal activity is given at values of at least 85) | very good (a very good herbicidal activity is given at values of at least 85) | very good (a very good herbicidal activity is given at values of at least 85) | very good (a very good herbicidal activity is given at values of at least 85) | – | –
COC(=O)c1nc(C2CC2)ncc1-c1ccc(F)cc1F [example 192] | – | – | – | – | very good (a very good herbicidal activity is given at values of at least 85) | very good (a very good herbicidal activity is given at values of at least 85) | very good (a very good herbicidal activity is given at values of at least 85) | very good (a very good herbicidal activity is given at values of at least 85) | – | –
O=C(OCc1ccccc1)c1nc(C2CC2)ncc1-c1ccccc1Cl [example 254] | very good (a very good herbicidal activity is given at values of at least 85) | very good (a very good herbicidal activity is given at values of at least 85) | very good (a very good herbicidal activity is given at values of at least 85) | very good (a very good herbicidal activity is given at values of at least 85) | – | – | – | – | very good (a very good herbicidal activity is given at values of at least 85) | –
C[Si](C)(C)CCOC(=O)c1nc(C2CC2)ncc1-c1ccccc1Cl [example 258] | very good (a very good herbicidal activity is given at values of at least 85) | very good (a very good herbicidal activity is given at values of at least 85) | – | very good (a very good herbicidal activity is given at values of at least 85) | – | – | – | – | very good (a very good herbicidal activity is given at values of at least 85) | –
COC(=O)c1nc(C2CC2)ncc1-c1c(F)cc(F)cc1F [example 193] | – | – | – | – | very good (a very good herbicidal activity is given at values of at least 85) | very good (a very good herbicidal activity is given at values of at least 85) | very good (a very good herbicidal activity is given at values of at least 85) | very good (a very good herbicidal activity is given at values of at least 85) | – | –
O=C(O)c1nc(C(F)(F)F)ncc1-c1ccccc1Cl [example 315] | good (A good herbicidal activity is given at values of at least 70) | very good (a very good herbicidal activity is given at values of at least 85) | good (A good herbicidal activity is given at values of at least 70) | good (A good herbicidal activity is given at values of at least 70) | – | – | – | – | good (A good herbicidal activity is given at values of at least 70) | –
COC(=O)c1nc(C2CC2)ncc1-c1ccccc1I [example 312] | – | – | – | – | very good (a very good herbicidal activity is given at values of at least 85) | very good (a very good herbicidal activity is given at values of at least 85) | very good (a very good herbicidal activity is given at values of at least 85) | very good (a very good herbicidal activity is given at values of at least 85) | – | very good (a very good herbicidal activity is given at values of at least 85)
COc1cccc(Cl)c1-c1cnc(C2CC2)nc1C(=O)O [example 178] | – | – | – | – | good (A good herbicidal activity is given at values of at least 70) | very good (a very good herbicidal activity is given at values of at least 85) | very good (a very good herbicidal activity is given at values of at least 85) | good (A good herbicidal activity is given at values of at least 70) | – | –
O=C(Oc1ccccc1)c1nc(C2CC2)ncc1-c1ccccc1Cl [example 255] | very good (a very good herbicidal activity is given at values of at least 85) | very good (a very good herbicidal activity is given at values of at least 85) | very good (a very good herbicidal activity is given at values of at least 85) | very good (a very good herbicidal activity is given at values of at least 85) | – | – | – | – | very good (a very good herbicidal activity is given at values of at least 85) | –
COc1ccc(OC(=O)c2nc(C3CC3)ncc2-c2ccccc2Cl)cc1 [example 259] | – | – | – | – | very good (a very good herbicidal activity is given at values of at least 85) | very good (a very good herbicidal activity is given at values of at least 85) | very good (a very good herbicidal activity is given at values of at least 85) | very good (a very good herbicidal activity is given at values of at least 85) | – | good (A good herbicidal activity is given at values of at least 70)
O=C(NO)c1nc(C2CC2)ncc1-c1ccccc1Cl [example 290] | – | – | – | – | very good (a very good herbicidal activity is given at values of at least 85) | very good (a very good herbicidal activity is given at values of at least 85) | very good (a very good herbicidal activity is given at values of at least 85) | very good (a very good herbicidal activity is given at values of at least 85) | – | –
O=C(O)c1nc(C2CC2)ncc1-c1c(F)cc(F)cc1F [example 134] | – | – | – | – | very good (a very good herbicidal activity is given at values of at least 85) | very good (a very good herbicidal activity is given at values of at least 85) | very good (a very good herbicidal activity is given at values of at least 85) | very good (a very good herbicidal activity is given at values of at least 85) | – | –
O=C(O)c1nc(C2CC2)ncc1-c1ccccc1Cl [example 141] | – | – | – | – | very good (a very good herbicidal activity is given at values of at least 85) | very good (a very good herbicidal activity is given at values of at least 85) | very good (a very good herbicidal activity is given at values of at least 85) | very good (a very good herbicidal activity is given at values of at least 85) | – | –
O=C(O)c1nc(C2CC2)ncc1-c1c(Cl)cccc1C(F)(F)F [example 304] | very good (a very good herbicidal activity is given at values of at least 85) | – | very good (a very good herbicidal activity is given at values of at least 85) | very good (a very good herbicidal activity is given at values of at least 85) | – | – | – | – | very good (a very good herbicidal activity is given at values of at least 85) | –
